Measurements taken from US20070021434A1, “NON-NUCLEOSIDE ANTI-HEPACIVIRUS AGENTS AND USES THEREOF” (Migenix Inc., priority 2005, published 2007).
pIC50: −log10 of the molar value.

Target: HCV RdRp (NS5B) (UniProt P26663)
Type: biochemical, hepatitis C virus

Chain of HCV RdRp (NS5B) (P26663 whole entry, looked up): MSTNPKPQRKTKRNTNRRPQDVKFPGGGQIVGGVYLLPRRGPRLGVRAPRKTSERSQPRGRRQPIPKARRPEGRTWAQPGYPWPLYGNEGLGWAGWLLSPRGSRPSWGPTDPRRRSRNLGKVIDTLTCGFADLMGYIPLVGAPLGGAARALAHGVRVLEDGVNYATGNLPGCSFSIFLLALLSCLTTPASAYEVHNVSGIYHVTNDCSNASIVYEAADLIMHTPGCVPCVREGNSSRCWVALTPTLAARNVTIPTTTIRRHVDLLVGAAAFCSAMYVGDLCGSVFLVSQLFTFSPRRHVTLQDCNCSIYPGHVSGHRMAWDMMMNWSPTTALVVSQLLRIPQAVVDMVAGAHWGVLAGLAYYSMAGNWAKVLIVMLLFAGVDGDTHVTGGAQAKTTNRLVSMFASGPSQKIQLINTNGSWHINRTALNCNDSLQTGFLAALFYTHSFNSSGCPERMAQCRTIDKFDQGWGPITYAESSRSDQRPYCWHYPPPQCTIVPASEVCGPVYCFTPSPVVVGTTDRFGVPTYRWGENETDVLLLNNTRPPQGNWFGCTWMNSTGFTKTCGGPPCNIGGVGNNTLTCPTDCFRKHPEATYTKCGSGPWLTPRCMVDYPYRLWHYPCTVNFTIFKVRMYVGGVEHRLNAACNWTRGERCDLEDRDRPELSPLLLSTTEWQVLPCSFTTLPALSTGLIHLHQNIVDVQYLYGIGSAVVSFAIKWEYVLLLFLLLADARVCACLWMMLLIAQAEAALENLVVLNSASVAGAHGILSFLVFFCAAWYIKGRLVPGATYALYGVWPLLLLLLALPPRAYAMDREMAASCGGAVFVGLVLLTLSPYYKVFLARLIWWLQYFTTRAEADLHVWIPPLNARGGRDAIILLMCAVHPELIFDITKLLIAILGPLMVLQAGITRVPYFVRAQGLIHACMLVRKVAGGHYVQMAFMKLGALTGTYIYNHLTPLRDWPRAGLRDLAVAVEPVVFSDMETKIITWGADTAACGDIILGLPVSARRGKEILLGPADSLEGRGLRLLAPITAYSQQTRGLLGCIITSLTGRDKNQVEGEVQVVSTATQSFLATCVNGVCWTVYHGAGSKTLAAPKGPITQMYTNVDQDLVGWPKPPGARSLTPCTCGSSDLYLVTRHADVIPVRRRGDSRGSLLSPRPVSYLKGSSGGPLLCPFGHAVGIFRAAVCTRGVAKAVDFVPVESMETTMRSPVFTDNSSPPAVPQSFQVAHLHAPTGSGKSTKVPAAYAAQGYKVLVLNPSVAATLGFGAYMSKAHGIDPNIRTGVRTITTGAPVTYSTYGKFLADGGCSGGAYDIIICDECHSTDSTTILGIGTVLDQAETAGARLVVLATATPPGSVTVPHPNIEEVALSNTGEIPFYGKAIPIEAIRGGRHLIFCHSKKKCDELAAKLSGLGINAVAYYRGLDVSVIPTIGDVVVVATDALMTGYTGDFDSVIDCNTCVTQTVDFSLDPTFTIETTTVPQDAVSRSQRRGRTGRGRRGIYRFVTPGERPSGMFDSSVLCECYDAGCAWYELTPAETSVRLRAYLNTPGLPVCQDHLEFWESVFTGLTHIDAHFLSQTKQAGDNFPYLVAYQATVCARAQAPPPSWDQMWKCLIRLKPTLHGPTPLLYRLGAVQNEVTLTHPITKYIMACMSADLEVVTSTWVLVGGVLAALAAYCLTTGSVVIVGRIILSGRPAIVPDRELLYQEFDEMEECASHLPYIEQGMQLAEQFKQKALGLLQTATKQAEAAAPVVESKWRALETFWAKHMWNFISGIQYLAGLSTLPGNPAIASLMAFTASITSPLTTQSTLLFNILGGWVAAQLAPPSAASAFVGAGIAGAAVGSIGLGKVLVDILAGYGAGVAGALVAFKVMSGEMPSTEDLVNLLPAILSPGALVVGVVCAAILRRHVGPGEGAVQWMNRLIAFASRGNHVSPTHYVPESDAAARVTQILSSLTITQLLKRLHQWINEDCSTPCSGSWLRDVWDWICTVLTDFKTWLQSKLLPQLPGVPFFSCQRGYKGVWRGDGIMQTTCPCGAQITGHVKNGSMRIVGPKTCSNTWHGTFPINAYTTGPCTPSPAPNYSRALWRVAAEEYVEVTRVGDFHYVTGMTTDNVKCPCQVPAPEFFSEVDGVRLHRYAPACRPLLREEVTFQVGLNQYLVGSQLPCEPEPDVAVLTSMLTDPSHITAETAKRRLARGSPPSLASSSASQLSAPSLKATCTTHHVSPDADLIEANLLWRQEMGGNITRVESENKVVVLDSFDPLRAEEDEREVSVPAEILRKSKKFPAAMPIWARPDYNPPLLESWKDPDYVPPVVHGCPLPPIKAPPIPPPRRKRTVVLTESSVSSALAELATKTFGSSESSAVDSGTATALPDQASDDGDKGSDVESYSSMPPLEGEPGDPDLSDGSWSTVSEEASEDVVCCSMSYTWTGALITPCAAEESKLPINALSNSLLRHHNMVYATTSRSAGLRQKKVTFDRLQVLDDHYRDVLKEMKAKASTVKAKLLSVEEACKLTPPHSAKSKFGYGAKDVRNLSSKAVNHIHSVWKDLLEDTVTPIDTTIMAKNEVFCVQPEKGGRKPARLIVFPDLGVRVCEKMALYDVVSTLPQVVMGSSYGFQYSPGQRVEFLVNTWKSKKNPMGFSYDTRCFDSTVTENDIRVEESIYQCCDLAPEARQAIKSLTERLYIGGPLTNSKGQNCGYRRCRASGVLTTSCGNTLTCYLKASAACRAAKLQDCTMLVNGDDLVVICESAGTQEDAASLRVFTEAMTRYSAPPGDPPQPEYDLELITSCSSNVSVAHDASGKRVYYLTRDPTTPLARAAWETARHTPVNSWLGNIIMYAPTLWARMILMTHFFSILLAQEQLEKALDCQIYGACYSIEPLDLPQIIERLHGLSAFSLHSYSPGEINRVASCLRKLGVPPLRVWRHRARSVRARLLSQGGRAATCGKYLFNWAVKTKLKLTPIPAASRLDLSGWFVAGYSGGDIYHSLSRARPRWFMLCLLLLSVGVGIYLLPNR

Row | Compound | pIC50
1 | Cc1ccc(NC(=O)[C@@H](CCCCN)NC(=O)NCc2ccc(Cl)cc2)cc1 [Compound 169, (R)-6-AMINO-2-[3-(4-CHLORO-BENZYL)-UREIDO]-HEXANOIC ACID P-TOLYLAMIDE] | < 4.30
2 | COc1ccc(NC(=O)N[C@@H](CCCCN)C(=O)Nc2ccc(C)cc2)cc1 [Compound 300, (S)-6-AMINO-2-[3-(4-METHOXY-PHENYL)-UREIDO]-HEXANOIC ACID P-TOLYLAMIDE] | < 4.30
3 | Cc1ccc(NC(=O)C(CCCCN)NC(=O)NCc2ccccc2)cc1 [Compound 133, (S)-6-AMINO-2-(3-BENZYL-UREIDO)-HEXANOIC ACID P-TOLYLAMIDE] | < 4.30
4 | Cc1ccc(NC(=O)C(CCCCN)NC(=O)c2ccccc2-c2ccccc2)cc1 [Compound 54, (S)-BIPHENYL-2-CARBOXYLIC ACID (5-AMINO-1-P-TOLYLCARBAMOYL-PENTYL)-AMIDE] | < 4.30
5 | Cc1ccc(NC(=O)C(Cc2ccc(N)cc2)NC(=O)OCC2c3ccccc3-c3ccccc32)cc1 [Compound 180, (S)-[2-(4-AMINO-PHENYL)-1-P-TOLYLCARBAMOYL-ETHYL]-CARBAMIC ACID 9H-FLUOREN-9-YLMETHYL ESTER] | < 4.30
6 | Cc1ccc(NC(=O)[C@H](CCCCN)NC(=O)COc2cccc(Cl)c2)cc1 [Compound 330, (S)-^6-AMINO-2-[2-(^3-CHLORO-PHENOXY)-ACETYLAMINO]-HEXANOIC ACID P-TOLYLAMIDE] | < 4.30
7 | CC(C)(C)c1ccc(NC(=O)[C@H](Cc2ccc(CN)cc2)NC(=O)NCc2ccc(Cl)c(Cl)c2)cc1 [Compound 149, (S)-3-(4-AMINOMETHYL-PHENYL)-N-(4-TERT-BUTYL-PHENYL)-2-[3-(3,4-DICHLORO-BENZYL)-UREIDO]-PROPIONAMIDE] | > 5.00
8 | Cc1ccc(NC(=O)C(CCCCN)NC(=O)Nc2ccc(CN(C)c3ccc([N+](=O)[O-])cc3)cc2)cc1 [Compound 251, (S)-6-AMINO-2-[3-(4-{[METHYL-(4-NITRO-PHENYL)-AMINO]-METHYL}-PHENYL)-UREIDO]-HEXANOIC ACID P-TOLYLAMIDE] | > 5.00
9 | Cc1ccc(NC(=O)[C@H](CCCCN)NS(=O)(=O)c2ccsc2)cc1 [Compound 399, (S)-6-AMINO-2-(THIOPHENE-3-SULFONYLAMINO)-HEXANOIC ACID P-TOLYLAMIDE] | < 4.30
10 | NCCCC[C@H](NC(=O)OCC1c2ccccc2-c2ccccc21)C(=O)Nc1ccc2c(c1)CCC2 [Compound 81, (S)-[5-AMINO-1-(INDAN-5-YLCARBAMOYL)-PENTYL]-CARBAMIC ACID 9H-FLUOREN-9-YLMETHYL ESTER] | 4.30 to 5.00
11 | O=C(N[C@@H](Cc1ccccc1)C(=O)Nc1ccc(CN(C(=O)c2ccco2)C2CCCCC2)cc1)OCC1c2ccccc2-c2ccccc21 [Compound 29, (S)-[1-(4-{[CYCLOHEXYL-(FURAN-2-CARBONYL)-AMINO]-METHYL}-PHENYL CARBAMOYL)-2-PHENYL-ETHYL]-CARBAMIC ACID 9H-FLUOREN-9-YLMETHYL ESTER] | < 4.30
12 | NCCCC[C@H](NC(=O)OCC1c2ccccc2-c2ccccc21)C(=O)Nc1cccc(OCc2ccccc2)c1 [Compound 211, (S)-[5-AMINO-1-(3-BENZYLOXY-PHENYLCARBAMOYL)-PENTYL]-CARBAMIC ACID 9H-FLUOREN-9-YLMETHYL ESTER] | 4.30 to 5.00
13 | CCN(CC)c1ccc(NC(=O)[C@H](CCCCN)NC(=O)OCC2c3ccccc3-c3ccccc32)cc1 [Compound 106, (S)-[5-AMINO-1-(4-DIETHYLAMINO-PHENYLCARBAMOYL)-PENTYL]-CARBAMIC ACID 9H-FLUOREN-9-YLMETHYL ESTER] | < 4.30
14 | COc1ccccc1CNCC(=O)N[C@@H](CCCCN)C(=O)Nc1ccc(C)cc1 [Compound 341, (S)-6-AMINO-2-[2-(2-METHOXY-BENZYLAMINO)-ACETYLAMINO]-HEXANOIC ACID P-TOLYLAMIDE] | < 4.30
15 | Cc1ccc(NC(=O)[C@H](CCCCN)NC(=O)Nc2ccc3c(c2)OCCO3)cc1 [Compound 213, (S)-6-AMINO-2-[3-(2,3-DIHYDRO-BENZO[1,4]DIOXIN-6-YL)-UREIDO]-HEXANOIC ACID P-TOLYLAMIDE] | < 4.30
16 | N[C@@H](CCNC(=O)OCC1c2ccccc2-c2ccccc21)C(=O)Nc1ccc(CN(C(=O)c2ccco2)C2CCCCC2)cc1 [Compound 14, (S)-[3-AMINO-3-(4-{[CYCLOHEXYL-(FURAN-2-CARBONYL)-AMINO]-METHYL}-PHENYLCARBAMOYL)-PROPYL]-CARBAMIC ACID 9H-FLUOREN-9-YLMETHYL ESTER] | 4.30 to 5.00
17 | NCCCC[C@H](NC(=O)c1ccccc1)C(=O)Nc1ccc(CN(C(=O)c2ccco2)C2CCCCC2)cc1 [Compound 27, (S)-FURAN-2-CARBOXYLIC ACID [4-(6-AMINO-2-BENZOYLAMINO-HEXANOYLAMINO)-BENZYL]-CYCLOHEXYL-AMIDE] | < 4.30
18 | Cc1ccc(CNC(=O)NC(CCCCN)C(=O)Nc2ccc(C)cc2)cc1 [Compound 136, (S)-6-AMINO-2-[3-(4-METHYL-BENZYL)-UREIDO]-HEXANOIC ACID P-TOLYLAMIDE] | < 4.30
19 | Cc1ccc(NC(=O)C(CCCCN)NC(=O)Nc2cccc(Cc3ccccc3)c2)cc1 [Compound 212, (S)-6-AMINO-2-[3-(3-BENZYL-PHENYL)-UREIDO]-HEXANOIC ACID P-TOLYLAMIDE] | 4.30 to 5.00
20 | NCCCC[C@@H](NC(=O)NCc1ccc(Cl)c(Cl)c1)C(=O)Nc1ccc(C2CCCCC2)cc1 [Compound 165, (R)-6-AMINO-2-[3-(3,4-DICHLORO-BENZYL)-UREIDO]-HEXANOIC ACID (4-CYCLOHEXYL-PHENYL)-AMIDE] | 4.30 to 5.00

Row | Compound | pIC50
21 | Cc1ccc(NC(=O)C(CCCCNC(=O)CN)NC(=O)OCC2c3ccccc3-c3ccccc32)cc1 [Compound 176, (S)-[5-(2-AMINO-ACETYLAMINO)-1-P-TOLYLCARBAMOYL-PENTYL]-CARBAMIC ACID 9H-FLUOREN-9-YLMETHYL ESTER] | > 5.00
22 | Cc1ccc(NC(=O)[C@H](CCCCN)NC(=O)Nc2ccc(OCc3cccc(F)c3)cc2)cc1 [Compound 249, (S)-6-AMINO-2-{3-[4-(3-FLUORO-BENZYLOXY)-PHENYL]-UREIDO}-HEXANOIC ACID P-TOLYLAMIDE] | 4.30 to 5.00
23 | CSCCC(NC(=O)OCC1c2ccccc2-c2ccccc21)C(=O)Nc1ccc(C)cc1 (stereo not drawn) [Compound 112] | < 4.30
24 | Cc1ccc(NC(=O)C(CCCN)NC(=O)OCC2c3ccccc3-c3ccccc32)cc1 [Compound 102, (R)-(4-AMINO-1-P-TOLYLCARBAMOYL-BUTYL)-CARBAMIC ACID 9H-FLUOREN-9-YLMETHYL ESTER] | < 4.30
25 | Cc1ccc(NC(=O)[C@H](CCCCN)NS(=O)(=O)c2ccccc2)cc1 [Compound 387, (S)-6-AMINO-2-BENZENESULFONYLAMINO-HEXANOIC ACID P-TOLYLAMIDE] | < 4.30
26 | Cc1ccc(NC(=O)[C@H](CCCCN)NC(=O)Nc2ccc(Oc3ccccc3)cc2)cc1 [Compound 41, (S)-6-AMINO-2-[3-(4-PHENOXY-PHENYL)-UREIDO]-HEXANOIC ACID P-TOLYLAMIDE] | < 4.30
27 | Cc1ccc(NC(=O)C(CCCNC(=N)N(C)C)NC(=O)OCC2c3ccccc3-c3ccccc32)cc1 [Compound 111, (S)-[4-(3,3-DIMETHYL-GUANIDINO)-1-P-TOLYLCARBAMOYL-BUTYL]-CARBAMIC ACID 9H-FLUOREN-9-YLMETHYL ESTER] | < 4.30
28 | Cc1ccc(NC(=O)C(CCCCN)NC(=O)Cc2ccc3ccccc3c2)cc1 [Compound 48, (S)-6-AMINO-2-(2-NAPHTHALEN-2-YL-ACETYLAMINO)-HEXANOIC ACID P-TOLYLAMIDE] | < 4.30
29 | NCCCC[C@H](NC(=O)OCC1c2ccccc2-c2ccccc21)C(=O)Nc1cc(-c2ccccc2)n[nH]1 [Compound 267, (S)-[5-AMINO-1-(5-PHENYL-2H-PYRAZOL-3-YLCARBAMOYL)-PENTYL]-CARBAMIC ACID 9H-FLUOREN-9-YLMETHYL ESTER] | 4.30 to 5.00
30 | Cc1ccc(NC(=O)[C@H](CCCCN)NC(=O)CNc2ccc(F)cc2)cc1 [Compound 361, (S)-6-AMINO-2-[2-(4-FLUORO-PHENYLAMINO)-ACETYLAMINO]-HEXANOIC ACID P-TOLYLAMIDE] | < 4.30
31 | Cc1ccc(NC(=O)[C@H](CCCCN)NC(=O)NC2c3ccccc3-c3ccccc32)cc1 [Compound 126, (S)-6-AMINO-2-[3-(9H-FLUOREN-9-YL)-UREIDO]-HEXANOIC ACID P-TOLYLAMIDE] | > 5.00
32 | NCCCC[C@H](NC(=O)OCC1c2ccccc2-c2ccccc21)C(=O)Nc1ccc(F)cc1 [Compound 44, (S)-[5-AMINO-1-(4-FLUORO-PHENYLCARBAMOYL)-PENTYL]-CARBAMIC ACID 9H-FLUOREN-9-YLMETHYL ESTER] | < 4.30
33 | Cc1ccc(NC(=O)C(CCCNC(=O)C2CCCN2)NC(=O)OCC2c3ccccc3-c3ccccc32)cc1 [Compound 220, (S)-{4-[R-(PYRROLIDINE-2-CARBONYL)-AMINO]-1-P-TOLYLCARBAMOYL-BUTYL}-CARBAMIC ACID 9H-FLUOREN-9-YLMETHYL ESTER] | < 4.30
34 | Cc1ccc(NC(=O)[C@H](CCCCN)NS(=O)(=O)c2ccc(Cl)cc2)cc1 [Compound 391, (S)-6-AMINO-2-(4-CHLORO-BENZENESULFONYLAMINO)-HEXANOIC ACID P-TOLYLAMIDE] | < 4.30
35 | CC(C)(C)c1ccc(NC(=O)CN(CCCCN)C(=O)Nc2ccc(OCc3ccccc3)cc2)cc1 [Compound 282, 2-[1-(4-AMINO-BUTYL)-3-(4-BENZYLOXY-PHENYL)-UREIDO]-N-(4-TERT-BUTYL-PHENYL)-ACETAMIDE] | < 4.30
36 | NCCCC[C@H](NC(=O)Cn1cnc2c(NC(=O)c3ccccc3)ncnc21)C(=O)N(Cc1ccccc1)C1CCCCC1 [Compound 88, (S)-N-(9-{[5-AMINO-1-(BENZYL-CYCLOHEXYL-CARBAMOYL)-PENTYLCARBAMOYL]-METHYL}-9H-PURIN-6-YL)-BENZAMIDE] | < 4.30
37 | CC(=O)Nc1cccc(NC(=O)[C@H](CCCCN)NC(=O)OCC2c3ccccc3-c3ccccc32)c1 [Compound 231, (S)-[1-(3-ACETYLAMINO-PHENYLCARBAMOYL)-5-AMINO-PENTYL]-CARBAMIC ACID 9H-FLUOREN-9-YLMETHYL ESTER] | < 4.30
38 | Cc1ccc(NC(=O)C(CCCCN)NC(=O)NC(C)c2cccc3ccccc23)cc1 [Compound 97, (S,S)-6-AMINO-2-[3-(1-NAPHTHALEN-1-YL-ETHYL)-UREIDO]-HEXANOIC ACID P-TOLYLAMIDE] | < 4.30
39 | Cc1ccc(NC(=O)C(CCCCCN)NC(=O)OCC2c3ccccc3-c3ccccc32)cc1 [Compound 104, (S)-(6-AMINO-1-P-TOLYLCARBAMOYL-HEXYL)-CARBAMIC ACID 9H-FLUOREN-9-YLMETHYL ESTER] | > 5.00
